Where two headings read alike, the source gives them in different places.
Key:
Myzus persicae = Myzus persicae spray test; assay type: in vivo; conditions: 100 g/ha, Chinese cabbage leaf disks, all instars, after 6 days
Protocol: Myzus Persicae—Spray Test
(§1) To produce a suitable preparation of active compound, 1 part by weight of active compound is mixed with the stated amount of solvents and is diluted with water, containing an emulsifier concentration of 1000 ppm, to the desired concentration. Further test concentrations are prepared by dilution with emulsifier containing water.
Chinese cabbage (Brassica pekinensis) leaf disks infected with all instars of the green peach aphid (Myzus persicae), are sprayed with a preparation of the active ingredient of the desired concentration.
After 6 days mortality in % is determined. 100% means all aphids have been killed and 0% means none of the aphids have been killed.

[1] = logP determination by HPLC on reversed-phase column (C18), EEC Directive 79/831 Annex V.A8; assay type: physicochemical; conditions: for chromatographic logP: reversed-phase HPLC column (C18)
Spodoptera frugiperda = Spodoptera frugiperda spray test; assay type: in vivo; conditions: for mortality: 100 g/ha, maize leaf sections, larvae, after 7 days
Protocol: Spodoptera Frugiperda—Spray Test
as §1
Maize (Zea mays) leaf sections are sprayed with a preparation of the active ingredient of the desired concentration. Once dry, the leaf sections are infested with fall armyworm larvae (Spodoptera frugiperda).
After 7 days mortality in % is determined. 100% means all caterpillars have been killed and 0% means none of the caterpillars have been killed.

Boophilus microplus = Boophilus microplus injection test (BOOPMI Inj); assay type: in vivo; conditions: 20 μg/animal, injection into adult engorged female ticks, egg deposition after 7 days
Protocol: Boophilus Microplus—Injectiontest (BOOPMI Inj)
(§2) Solvent: Dimethyl Sulfoxide
To produce a suitable preparation of active compound, 10 mg of active compound are dissolved in 0.5 ml solvent, and the concentrate is diluted with solvent to the desired concentration.
Five adult engorged female ticks (Boophilus microplus) are injected with 1 μl compound solution into the abdomen. The ticks are transferred into replica plates and incubated in a climate chamber.
After 7 days egg deposition of fertile eggs is monitored. Eggs where fertility is not visible are stored in a climate chamber till hatching after about 42 days. An efficacy of 100% means all eggs are infertile; 0% means all eggs are fertile.

Ctenocephalides felis = Ctenocephalides felis oral test (CTECFE); assay type: in vivo; conditions: 100 ppm in cattle blood, adult cat fleas, after 2 days
Protocol: Ctenocephalides felis—Oral Test (CTECFE)
as §2
To produce a suitable preparation of active compound, 10 mg of active compound are dissolved in 0.5 ml solvent, and the concentrate is diluted with cattle blood to the desired concentration.
Approximately 20 adult unfed cat fleas (Cienocephalides felis) are placed in flea chambers. The blood chamber, sealed with parafilm on the bottom, are filled with cattle blood supplied with compound solution and placed on the gauze covered top of the flea chamber, so that the fleas are able to suck the blood. The blood chamber is heated to 37° C. whereas the flea chamber is kept at room temperature.
After 2 days mortality in % is determined. 100% means all the fleas have been killed; 0% means none of the fleas have been killed.

Lucilia cuprina = Lucilia cuprina test (LUCICU); assay type: in vivo; conditions: 100 ppm, 1st instar larvae, after 2 days
Protocol: Lucilia cunrina—Test (LUCICU)
as §2
10 mg active compound are dissolved in 0.5 ml Dimethylsulfoxid. Serial dilutions are made to obtain the desired rates.
Approximately 20 1st instar larvae of the Australian sheep blowfly (Lucilia cuprina) are transferred into a test tube containing minced horse meat and compound solution of the desired concentration.
After 2 days mortality in % is determined. 100% means all the larvae have been killed; 0% means none of the larvae have been killed.

Phaedon cochleariae = Phaedon cochleariae spray test; assay type: in vivo; conditions: in Brassica rapa, foliar, 168 h
Protocol: Phaedon cochleariae—Spray Test
as §1
Chinese cabbage (Brassica pekinensis) leaf disks are sprayed with a preparation of the active ingredient of the desired concentration. Once dry, the leaf disks are infested with mustard beetle larvae (Phaedon cochleariae).
After 7 days mortality in % is determined. 100% means all beetle larvae have been killed and 0% means none of the beetle larvae have been killed.

Tetranychus urticae = Tetranychus urticae spray test OP-resistant; assay type: in vivo; conditions: in Phaseolus vulgaris, foliar, 144 h
Protocol: Tetranychus urticae—Spray Test OP-Resistant
as §1
French bean (Phaseolus vulgaris) leaf disks infected with all instars of the two spotted spidermite (Tetranychus urticae), are sprayed with a preparation of the active ingredient of the desired concentration.
After 6 days mortality in % is determined. 100% means all spider mites have been killed and 0% means none of the spider mites have been killed.

[2] = HPLC, C18, acetonitrile (0.1% formic acid)/water (0.09% formic acid) gradient
[3] = intermediates, values in text, same HPLC method, read-out: log P (HPLC-MS)
[4] = intermediates, values in text, same HPLC method
[5] = HPLC, C18, acetonitrile (0.1% formic acid)/water (0.09% formic acid) gradient, read-out: logP

| Molecule | logP [1, 2] | chromatographic logP [1, 3] | other results |
| --- | --- | --- | --- |
| Cn1nc(C2(Cl)CC2)c(C(F)F)c1-n1cc(-c2ccc(Cl)c(C(=O)NC3(C#N)CC3)c2)cn1 [Example I-7] | 2.96 |  | mortality (Myzus persicae): 90%; mortality (Spodoptera frugiperda): 100% |
| CN(C)/C=C/C(=O)C1(F)CC1 [Example 16, (2E)-3-(dimethylamino)-1-(1-fluorocyclopropyl)prop-2-en-1-one] |  | 1.16 |  |
| Cn1nc(C2(F)CC2)c(C(F)F)c1-n1cc(-c2cnc(Cl)c(C(=O)NC3(C#N)CC3)c2)cn1 [Example I-11] | 2.44 |  |  |
| Cn1nc(C2(F)CC2)c(C(F)F)c1-n1cc(-c2ccc(Cl)c(C(=O)O)c2)cn1 [Example 29, 2-chloro-5-[4′-(difluoromethyl)-5′-(1-fluorocyclopropyl)-2′-methyl-2′H-1,3′-bipyrazol-4-yl]benzoic acid] |  | 2.71 |  |
| COC(=O)c1cc(-c2cnn(-c3c(C(F)F)c(C4(F)CC4)nn3C)c2)ccc1Cl [Example 28, methyl 2-chloro-5-[4′-(difluoromethyl)-5′-(1-fluorocyclopropyl)-2′-methyl-2′H-1,3′-bipyrazol-4-yl]benzoate] |  | 3.63 |  |
| 4′-(difluoromethyl)-5′-(1-fluorocyclopropyl)-4-iodo-2′-methyl-2′H-1,3′-bipyrazole [Example 26] |  |  | log P (HPLC-MS) [1, 4]: 3.37 |
| CN1N=C(C2(F)CC2)CC1=O [Example 32, 5-(1-fluorocyclopropyl)-2-methyl-2,4-dihydro-3H-pyrazol-3-one] |  | 0.38 |  |
| Cn1nc(C2(F)CC2)c(C(F)F)c1-n1cc(-c2ccc(Cl)c(C(=O)NC3CC3)c2)cn1 [Example I-3] | 2.81 |  |  |
| 5′-(1-fluorocyclopropyl)-4-iodo-2′-methyl-2′H-1,3′-bipyrazole-4′-carbaldehyde [Example 25] |  |  | log P (HPLC-MS) [1, 4]: 2.86 |
| Cn1nc(C2(Cl)CC2)c(C(F)F)c1-n1cc(-c2cnc(Cl)c(C(=O)NC3(C#N)CC3)c2)cn1 [Example I-9] | 2.63 |  |  |
| Cn1nc(C2(F)CC2)c(C=O)c1Cl [Example 24, 5-chloro-3-(1-fluorocyclopropyl)-1-methyl-1H-pyrazole-4-carbaldehyde] |  | 1.71 |  |
| Cn1nc(C2(F)CC2)c(C(F)(F)F)c1-n1cc(-c2ccc(Cl)c(C(=O)NC3(C#N)CC3)c2)cn1 [Example I-1, 2-chloro-N-(1-cyanocyclopropyl)-5-[5′-(1-fluorocyclopropyl)-2′-methyl-4′-(trifluoromethyl)-2′H-1,3′-bipyrazol-4-yl]benzamide] |  |  | chromatographic logP [1, 5]: 3.09 |
| Cn1nc(C2(Cl)CC2)c(C(F)F)c1-n1cc(-c2cnc(Cl)c(C(=O)NC3CC3)c2)cn1 [Example I-10] | 2.60 |  |  |
| Cn1nc(C2(F)CC2)c([N+](=O)[O-])c1-n1cc(-c2ccc(Cl)c(C(=O)NC3(C#N)CC3)c2)cn1 [Example I-4] | 2.69 |  | efficacy (infertile eggs) (Boophilus microplus): 100%; mortality (Ctenocephalides felis): 100%; mortality (Lucilia cuprina): 100% |
| Cn1nc(C2(Br)CC2)c([N+](=O)[O-])c1-n1cc(-c2ccc(Cl)c(C(=O)NC3CC3)c2)cn1 [Example I-6] | 2.98 |  |  |
| N#CC1(NC(=O)c2cc(-c3cn[nH]c3)ccc2Cl)CC1 [Example 14, 2-chloro-N-(1-cyanocyclopropyl)-5-(1H-pyrazol-4-yl)benzamide] |  | 1.31 |  |
| Cn1nc(C2(F)CC2)c(C(F)F)c1-n1cc(-c2cnc(Cl)c(C(=O)NC3CC3)c2)cn1 [Example I-12] | 2.42 |  |  |
| Cn1nc(C2(F)CC2)c(C(F)F)c1-n1cc(-c2ccc(Cl)c(C(=O)NC3(C#N)CC3)c2)cn1 [Example I-2, 2-chloro-N-(1-cyanocyclopropyl)-5-[4′-(difluoromethyl)-5′-(1-fluorocyclopropyl)-2′-methyl-2′H-1,3′-bipyrazol-4-yl]benzamide] |  |  | mortality at 100 g/ha (Phaedon cochleariae): 100%; chromatographic logP [1, 5]: 2.78; mortality at 100 g/ha (Spodoptera frugiperda; Spodoptera frugiperda, in Zea mays, 168 h): 100%; mortality at 100 g/ha (Tetranychus urticae): 100% |
| Cn1nc(C2(F)CC2)c([N+](=O)[O-])c1-n1cc(-c2ccc(Cl)c(C(=O)NC3CC3)c2)cn1 [Example I-5] | 2.70 |  |  |
| Cn1nc(C2(Cl)CC2)c(C(F)F)c1-n1cc(-c2ccc(Cl)c(C(=O)NC3CC3)c2)cn1 [Example I-8] | 3.05 |  | mortality (Spodoptera frugiperda): 100% |

— patent US20170217899A1, “NOVEL HALOGEN-SUBSTITUTED COMPOUNDS” (BAYER CROPSCIENCE AKTIENGESELLSCHAFT, priority 2014, published 2017)
